Measured values from the NIST ThermoML archive (doi:10.1021/je301030z).

Assay: mn = molality of the nth substance listed, in mol/kg
Details: 101 kPa, Liquid, Vibrating tube method

NCCO [2-aminoethan-1-ol] + O
mass density [kg/m3]
Details	293.16 K	297.14 K	301.14 K	305.14 K	309.14 K	313.14 K	317.14 K	320.14 K
m1 = 2.8	1004.53	1003.31	1001.95	1000.48	998.89	997.21	995.42	994.02
m1 = 7.01	1013.19	1011.51	1009.75	1007.89	1005.96	1003.95	1001.85	1000.22
